Measurements reported in patent US5776914A, “Prevention of hemolysis” (The Trustees of the University of Pennsylvania, priority 1994, dated 1998).
Values after ≈ are worked out from the molar mass of the structure shown. Values belong to the compound of their own block, whether it stands above or below them.

Assays:
erythrocytes [1] = format: cell-based, human
Protocol: FIG. 2 graphically illustrates the hemolytic effects of two hydroxyalkyl substituted cyclodextrins, 2-hydroxyethyl-β-cyclodextrin (β-CD-4-Et) and 2-hydroxypropyl-β-cyclodextrin (β-CD-4Pr) in comparison to the polyanionically substituted cyclodextrin β-cyclodextrin-tetradecasulfate sodium (β-CD-14s) on fresh human blood to which about 0.47% sodium citrate was added.
The first sample contained erythrocytes and isotonic saline. This first sample served as a zero blank.

erythrocytes [2] = assay: inhibition of hemolysis induced by hemolytic agents (CPZ, CD, Pr-OH-CD, clay); conditions: for Hemolysis: 15 min
Protocol: Unless explicitly stated otherwise, hemolytic activity was measured by the procedure described by I. Jodal et al., Proceedings of the Fourth International Symposium on Cyclodextrins, O. Huber and J. Szejtli, Eds., 421-425, Kluwer Academic Publishers, Boston (1988), which is incorporated herein by reference.
For each of the examples which follow, sodium citrate was added about (to about 0.47%) to fresh human blood collected from healthy laboratory personnel. After centrifugation (10 min., 400×G) to separate the erythrocytes from other blood components, the supernatant erythrocyte fraction was recentrifuged and washed twice with isotonic phosphate buffer. The erythrocytes were diluted with that buffer to a 10% hematocrit value to obtain an erythrocyte suspension. Test material and erythrocytes were mixed as follows: about 3.6, 1.8, and 0.9 ml of a test material solution was mixed with about 0.4, 0.2 and 0.1 ml, respectively, of erythrocyte suspension and then incubated for about 15 minutes each at about 37° C., followed by two centrifugations for two minutes each at about 4000×G The resulting supernatants were measured for absorbance at 543 nm using a Gilford spectrophotometer. The percent of hemolysis was determined by reference to two control samples. The first sample contained erythrocytes and isotonic saline. This first sample served as a zero blank. The second sample was identical to the first but had been sonicated to provide a value for 100% hemolysis.

solubility limit = format: physicochemical; conditions: 20° C.
erythrocytes [3] = conditions: 1.0 mM β-cyclodextrin, simultaneous use (Uekama 1981); cited from earlier work
erythrocytes [4] = conditions: cited from earlier work; for concentration above/at which hemolysis is induced: background statement; for hemolytic activity (in words): known in the art / literature
in vitro = format: cell-based, human; conditions: human, erythrocytes
erythrocytes [5] = assay: in vitro; format: cell-based, human

Compound: β-cyclodextrin-tetradecasulfate sodium [β-CD-14s]
- hemolytic effect (FIG. 2) (erythrocytes [1]): no undesirable hemolytic properties
- reduction of the level of hemolysis (erythrocytes [2]; CD about 15 mg/ml, β-CD-14s 50 mg/ml): about 41%
- fold reduction of hemolysis (erythrocytes [2]; CD about 15 mg/ml, β-CD-14s 150 mg/ml): about 30 fold
- hemolytic activity of the composition with CPZ (in words) (erythrocytes [2]; Example 23: CPZ 1.0 mg/ml + 50 mg/ml CDS): substantially reduced hemolytic activity
- hemolytic effect (in words) (erythrocytes [2]; about 70 mg/ml CDS, about 2.0 mg/ml CPZ): negligible hemolytic effect
- fold improvement, that is, reduction in hemolysis (erythrocytes [2]; hydroxypropyl cyclodextrin 75 mg/ml, β-CD-14s 100 mg/ml): at least 20 fold

Compound: 2-hydroxyethyl-β-cyclodextrin [β-CD-4-Et]
- hemolytic effect (FIG. 2) (erythrocytes [1]): induced hemolysis at low concentrations

Compound: 2-hydroxypropyl-β-cyclodextrin [β-CD-4Pr]
- hemolytic effect (FIG. 2) (erythrocytes [1]): induced hemolysis at low concentrations

- solubility (solubility limit): 13 to 18 mg/mL (≈ 11.5 to 15.9 mM)
Compound: OC[C@H]1O[C@@H]2O[C@H]3[C@H](O)[C@@H](O)[C@@H](O[C@H]4[C@H](O)[C@@H](O)[C@@H](O[C@H]5[C@H](O)[C@@H](O)[C@@H](O[C@H]6[C@H](O)[C@@H](O)[C@@H](O[C@H]7[C@H](O)[C@@H](O)[C@@H](O[C@H]8[C@H](O)[C@@H](O)[C@@H](O[C@H]1[C@H](O)[C@H]2O)O[C@@H]8CO)O[C@@H]7CO)O[C@@H]6CO)O[C@@H]5CO)O[C@@H]4CO)O[C@@H]3CO [β-CD, β-cyclodextrin]
- onset of hemolysis (concentration inducing hemolysis) (erythrocytes [1]; human): about 6 mg/ml
- inhibition of hemolytic action of chlorpromazine (erythrocytes [3]): inhibits the hemolytic action
- concentration above/at which hemolysis is induced (erythrocytes [4]): 2000 to 3000 µM
- Hemolysis (erythrocytes [2]; CPZ 0.5 mg/ml (1.5 mM) + CD 5.0 mg/ml (4.0 mM), molar ratio CD/CPZ 2.7 (Example 20)): 6.5
- Hemolysis (erythrocytes [2]; CPZ 0.75 mg/ml (2.25 mM) + CD 7.5 mg/ml (6.0 mM), molar ratio CD/CPZ 2.7 (Example 21)): 21
- Hemolysis (erythrocytes [2]; CPZ 1.0 mg/ml (3.0 mM) + CD 10 mg/ml (8.0 mM), molar ratio CD/CPZ 2.7 (Example 22)): 80
- protection from hemolysis by CPZ (in words) (erythrocytes [2]; Example 20: CPZ 0.5 mg/ml + CD 5.0 mg/ml): considerable protection
- protection from hemolysis by CPZ (in words) (erythrocytes [2]; Examples 21 and 22: CPZ 0.75-1.0 mg/ml + CD 7.5-10 mg/ml): protection is lost

Compound: CN(C)CCCN1c2ccccc2Sc2ccc(Cl)cc21 [CPZ, chloropromazine]
- hemolysis at 0.25 h (in vitro; 0.5 mg/ml of CPZ): ~100%
- hemolysis at 0.25 h (in vitro; CPZ 0.15 mg/ml (Example 1)): 4.9%
- hemolysis at 0.25 h (in vitro; CPZ 0.25 mg/ml (Example 2)): 7%
- hemolysis at 0.25 h (in vitro; CPZ 0.30 mg/ml (Example 3)): 88%
- hemolysis at 0.25 h (in vitro; CPZ 0.40 mg/ml (Example 4)): 96%
- hemolysis (in words) (erythrocytes [5]; concentrations approaching 0.5 mg/ml of CPZ): complete hemolysis
- hemolysis (in words) (erythrocytes [5]; without CDS, about one-fifth of 2.0 mg/ml CPZ (Example 4)): substantially complete hemolysis
- concentration above/at which hemolysis is induced (erythrocytes [4]): > 500 µM
- hemolytic activity (in words) (erythrocytes [4]): hemolysis inducing agents

Compound: CC(C(=O)O)c1ccc(-c2ccccc2)c(F)c1 (stereo not shown) [flurbiprofen]
- hemolytic activity (in words) (erythrocytes [4]): hemolysis inducing agents

Compound: C=C[C@]1(C)C[C@@H](OC(=O)CSCCN(CC)CC)[C@]2(C)[C@H](C)CC[C@]3(CCC(=O)[C@H]32)[C@@H](C)[C@@H]1O [tiamulin]
- hemolytic activity (in words) (erythrocytes [4]): hemolysis inducing agents
